Data taken from patent US20240122179A1, “AUXINIC HERBICIDES AND METHODS OF USE THEREOF” (CORTEVA AGRISCIENCE LLC, priority 2021, published 2024).
Read-outs that look alike come from different tables or passages of the source.

How the values were obtained:
Assay in all cases: Postemergence herbicide evaluation, percent reduction in plant size vs untreated control, 21 days after treatment
Amaranthus rudis (AMATA) = type: in vivo, Amaranthus rudis (tall water hemp); settings: Amaranthus tuberculatus, post-emergence, 504 h, AMATA, postemergence, read-out: Control/Injury; for pest or weed control at 140 g/ha: rate 140 g ae/ha; for pest or weed control at 280 g/ha: rate 280 g ae/ha
Protocol: (§1) Plants were grown in a soil media composed of 90% by volume Promix BX (Premier Tech Horticulture, Quakertown, PA) and 10% Profile Greens Grade (Profile Products LLC, Buffalo Grove, IL). Promix BX contains approximately 83% Sphagnum Peat Moss, 13% Perlite, 5% vermiculite, and proprietary amounts of limestone, starter fertilizer, and wetting agent. Profile Greens Grade is a sand-sized granule formed from calcining illite and montmorillonite clay. Several seeds of each species were planted in 10 cm square pots and top watered twice daily. Plant material was propagated in a warm greenhouse with temperature ranging from 25 to 28° C. and 50 to 60% relative humidity at the Corteva Global Headquarters (Indianapolis, Indiana, USA). Natural light was supplemented with 1000-watt metal halide overhead lamps with an average illumination of 500 μE m^−2 s^−1 photosynthetic active radiation for 16 consecutive hours each day. Plants were top-watered prior to herbicide application and sub-watered after herbicide application.
(§2) Appropriate amounts of test materials were weighed out into glass vials in their technical form to deliver either 140 or 280 g acid equivalent (ae)/ha. The samples were dissolved in 3 ml of Solvent 1. Solvent 1 is 97% acetone and 3% dimethyl sulfoxide and serves as a general-purpose solvent (GPS) for dissolving technical materials. […] The samples were then diluted to their final concentration using 17 ml of solvent 2 for a total of 20 ml of spray solution. Solvent 2 contains 41.58% GPS, 45.53% water, 11.88% isopropyl alcohol, 0.99% crop oil concentrate and 0.02% Trition X-155 surfactant. All percentages are listed on a volume basis. Dicamba diglycolamine was applied as a formulated herbicide, Clarity™ and diluted with solvent 2 to compare all materials in the same spray solution.
(§3) Herbicide applications were made to 3 to 4 replicates of each plant species at the 2 to 8 leaf stage, depending on the species. Treatments were applied with a research track-sprayer (Generation III Research Sprayer manufactured by DeVries Manufacturing in Hollandale, MN, USA) calibrated to deliver a spray volume of 187 L/ha. The track-sprayer was fitted with an 8003E nozzle from Spray Systems Company (North Avenue and Schmale Road, P.O. Box 7900, Wheaton, IL 60187), and used a spray pressure of 276 kPa pressure and a speed of 3.1 km/h. The nozzle height was 46 cm above the plant canopy. The experimental design used for the trials was a randomized complete block with 3 or 4 replications per treatment. After application, plants were placed on carts according to the randomization and returned to the greenhouse. Plants were sub-watered after treatment with Indianapolis city water or fertilized three times a week with a commercial fertilizer solution (Jack's Professional 15-5-15 4 Ca 2 Mg fertilizer (manufactured by JR PETERS INC., 6656 Grant Way, Allentown, PA 18106; www.jrpeters.com). Percent visual control assessments were made on a scale of 0 to 100% (where 0 was no control and 100 was complete plant death) at 7, 14, and 21 days after treatment.
(§4) In conformity with the methods outlined in Example 49, the effect of representative experimental compounds on the growth of Amaranthus rudis (AMATA), common name tall water hemp, was determined at 2 different levels (respectively, 140 and 280 g acid equivalent (ae)/ha) of the experimental actives tested. Plants were treated with one of the compounds, a control plant was not treated. Twenty-one days after treatment, the plants were measured. The data is present as a percent reduction in plant size relative to the untreated control.

[1] = test system: Ambrosia artemisiifolia (AMBEL); type: in vivo, Ambrosia artemisiifolia (common ragweed); settings: post-emergence, 504 h, AMBEL, postemergence, read-out: Control/Injury; for pest or weed control at 140 g/ha: rate 140 g ae/ha; for pest or weed control at 280 g/ha: rate 280 g ae/ha
Protocol: as §1, §2, §3
as §4, with “Ambrosia artemisiifolia (AMBEL), (common ragweed),” for “Amaranthus rudis (AMATA), common name tall water hemp,”

Kochia scoparia (KCHSC) = type: in vivo; settings: Bassia scoparia, post-emergence, 504 h, KCHSC, postemergence, read-out: Control/Injury; for pest or weed control at 140 g/ha: rate 140 g ae/ha; for pest or weed control at 280 g/ha: rate 280 g ae/ha
Protocol: as §1, §2, §3
as §4, with “Kochia scoparia (KCHSC)” for “Amaranthus rudis (AMATA), common name tall water hemp,”

[2] = test system: Amaranthus palmeri (AMAPA); type: in vivo, Amaranthus palmeri (Palmer amaranth); settings: post-emergence, 504 h, postemergence, read-out: Control/Injury; for pest or weed control at 140 g/ha: rate 140 g ae/ha; for pest or weed control at 280 g/ha: rate 280 g ae/ha
Protocol: as §1, §2, §3
as §4, with “palmeri (AMAPA),” for “rudis (AMATA),”, “name, Palmer amaranth,” for “name tall water hemp,”

[3] = test system: Conyza canadensis (L.) (ERICA); type: in vivo, Conyza canadensis (L.) (Horseweed); settings: Erigeron canadensis, post-emergence, 504 h, ERICA, postemergence, read-out: Control/Injury; for pest or weed control at 140 g/ha: rate 140 g ae/ha; for pest or weed control at 280 g/ha: rate 280 g ae/ha
Protocol: as §1, §2, §3
as §4, with “Conyza canadensis (L.), (ERICA),” for “Amaranthus rudis (AMATA),”, “name, Horseweed,” for “name tall water hemp,”

[4] = percent reduction vs untreated, 21 days after treatment
[5] = R-AMAPA, percent reduction vs untreated control, 21 days after treatment
[6] = percent reduction vs untreated control, 21 days after treatment

## COc1c(Cl)ccc(Cl)c1C(=O)O [Dicamba, 3,6-dichloro-2-methoxybenzoic acid, reference compound]
Amaranthus rudis (AMATA)
  pest or weed control at 140 g/ha: 99%
  pest or weed control at 280 g/ha: 90%
[1]
  pest or weed control at 140 g/ha: 97%
  pest or weed control at 280 g/ha: 100%
Kochia scoparia (KCHSC); [4]
  pest or weed control at 140 g/ha: 94%
  pest or weed control at 280 g/ha: 97%
[2]; AMAPA
  pest or weed control at 140 g/ha: 78%
  pest or weed control at 280 g/ha: 94%
[3]
  pest or weed control at 140 g/ha: 94%
  pest or weed control at 280 g/ha: 100%

## COc1c(Cl)ccc(Cl)c1C(=O)O/N=C(\N)CCCCCC/C(N)=N/OC(=O)c1c(Cl)ccc(Cl)c1OC [Compound A-147]
Amaranthus rudis (AMATA)
  pest or weed control at 140 g/ha: 59%
  pest or weed control at 280 g/ha: 49%
[1]
  pest or weed control at 140 g/ha: 80%
  pest or weed control at 280 g/ha: 81%
Kochia scoparia (KCHSC); [4]
  pest or weed control at 140 g/ha: 93%
  pest or weed control at 280 g/ha: 88%
[2]; [5]
  pest or weed control at 140 g/ha: 43%
  pest or weed control at 280 g/ha: 38%
[3]; [4]
  pest or weed control at 140 g/ha: 50%
  pest or weed control at 280 g/ha: 60%

## CCN(CC)C(=O)c1c(Cl)ccc(Cl)c1OC [Compound A-107]
Amaranthus rudis (AMATA)
  pest or weed control at 140 g/ha: 2%
  pest or weed control at 280 g/ha: 18%
[1]
  pest or weed control at 140 g/ha: 10%
  pest or weed control at 280 g/ha: 18%
Kochia scoparia (KCHSC); [4]
  pest or weed control at 140 g/ha: 0%
  pest or weed control at 280 g/ha: 0%
[2]; AMAPA
  pest or weed control at 140 g/ha: 9%
  pest or weed control at 280 g/ha: 18%
[3]
  pest or weed control at 140 g/ha: 3%
  pest or weed control at 280 g/ha: 5%

## COc1c(Cl)ccc(Cl)c1C(=O)N1CCCCO1 [Compound A-104]
Amaranthus rudis (AMATA)
  pest or weed control at 140 g/ha: 73%
  pest or weed control at 280 g/ha: 92%
[1]
  pest or weed control at 140 g/ha: 5%
  pest or weed control at 280 g/ha: 15%
Kochia scoparia (KCHSC); [4]
  pest or weed control at 140 g/ha: 3%
  pest or weed control at 280 g/ha: 13%
[2]; AMAPA
  pest or weed control at 140 g/ha: 45%
  pest or weed control at 280 g/ha: 65%
[3]
  pest or weed control at 140 g/ha: 0%
  pest or weed control at 280 g/ha: 10%

## COc1c(Cl)ccc(Cl)c1C(=O)ON(C)C(=O)c1ccccc1 [Compound A-71]
Amaranthus rudis (AMATA)
  pest or weed control at 140 g/ha: 83%
  pest or weed control at 280 g/ha: 80%
[1]
  pest or weed control at 140 g/ha: 83%
  pest or weed control at 280 g/ha: 93%
Kochia scoparia (KCHSC)
  pest or weed control at 140 g/ha: 85%
  pest or weed control at 280 g/ha: 87%
[2]; [5]
  pest or weed control at 140 g/ha: 70%
  pest or weed control at 280 g/ha: 82%
[3]; [6]
  pest or weed control at 140 g/ha: 85%
  pest or weed control at 280 g/ha: 92%

## COc1c(Cl)ccc(Cl)c1C(=O)NN1CCOCC1 [Compound A-127]
Amaranthus rudis (AMATA)
  pest or weed control at 140 g/ha: 30%
  pest or weed control at 280 g/ha: 35%
[1]
  pest or weed control at 140 g/ha: 30%
  pest or weed control at 280 g/ha: 63%
Kochia scoparia (KCHSC); [4]
  pest or weed control at 140 g/ha: 3%
  pest or weed control at 280 g/ha: 5%
[2]; AMAPA
  pest or weed control at 140 g/ha: 20%
  pest or weed control at 280 g/ha: 23%
[3]
  pest or weed control at 140 g/ha: 18%
  pest or weed control at 280 g/ha: 13%

## COc1c(Cl)ccc(Cl)c1C(=O)O/N=C/c1cc(/C=N/OC(=O)c2c(Cl)ccc(Cl)c2OC)cc(/C=N/OC(=O)c2c(Cl)ccc(Cl)c2OC)c1 [Compound A-99]
Amaranthus rudis (AMATA)
  pest or weed control at 140 g/ha: 84%
  pest or weed control at 280 g/ha: 78%
[1]
  pest or weed control at 140 g/ha: 96%
  pest or weed control at 280 g/ha: 95%
Kochia scoparia (KCHSC); [4]
  pest or weed control at 140 g/ha: 93%
  pest or weed control at 280 g/ha: 95%
[2]; AMAPA
  pest or weed control at 140 g/ha: 90%
  pest or weed control at 280 g/ha: 80%
[3]
  pest or weed control at 140 g/ha: 97%
  pest or weed control at 280 g/ha: 99%

## COc1c(Cl)ccc(Cl)c1C(=O)Oc1noc2ccccc12 [Compound A-122]
Amaranthus rudis (AMATA)
  pest or weed control at 140 g/ha: 38%
  pest or weed control at 280 g/ha: 50%
[1]
  pest or weed control at 140 g/ha: 73%
  pest or weed control at 280 g/ha: 97%
Kochia scoparia (KCHSC); [4]
  pest or weed control at 140 g/ha: 80%
  pest or weed control at 280 g/ha: 93%
[2]; AMAPA
  pest or weed control at 140 g/ha: 28%
  pest or weed control at 280 g/ha: 45%
[3]
  pest or weed control at 140 g/ha: 95%
  pest or weed control at 280 g/ha: 100%

## COC(=O)C(C(=O)OC)C(=O)c1c(Cl)ccc(Cl)c1OC [Compound A-135]
Amaranthus rudis (AMATA)
  pest or weed control at 140 g/ha: 0%
  pest or weed control at 280 g/ha: 5%
[1]
  pest or weed control at 140 g/ha: 23%
  pest or weed control at 280 g/ha: 35%
Kochia scoparia (KCHSC); [4]
  pest or weed control at 140 g/ha: 3%
  pest or weed control at 280 g/ha: 3%
[2]; AMAPA
  pest or weed control at 140 g/ha: 6%
  pest or weed control at 280 g/ha: 10%
[3]
  pest or weed control at 140 g/ha: 10%
  pest or weed control at 280 g/ha: 25%

## C=CCONC(=O)c1c(Cl)ccc(Cl)c1OC [Compound A-101]
Amaranthus rudis (AMATA)
  pest or weed control at 140 g/ha: 18%
  pest or weed control at 280 g/ha: 33%
[1]
  pest or weed control at 140 g/ha: 25%
  pest or weed control at 280 g/ha: 15%
Kochia scoparia (KCHSC); [4]
  pest or weed control at 140 g/ha: 0%
  pest or weed control at 280 g/ha: 0%
[2]; AMAPA
  pest or weed control at 140 g/ha: 18%
  pest or weed control at 280 g/ha: 13%
[3]
  pest or weed control at 140 g/ha: 0%
  pest or weed control at 280 g/ha: 8%
